In patent US20080275111A1, “Novel Use of Lignan Compounds” (priority 2005, published 2008):

Experiments:
[1] = system: tissue-cultured hippocampus neuron; experiment: Reactive oxygen species production induced by BSO in tissue-cultured hippocampus neuron (DCFDA); type: cell-based, mouse; details: 1 mM BSO for 8 hours, compound 0.1, 0.5 and 1 μM; control not treated with BSO
Protocol: Then, the antioxidant effect of the lignan compound of the present invention in the tissue-cultured hippocampus neuron was analyzed. For this analysis, the hippocampus of a fetus extracted from a pregnant (18 days) mouse was cultured in neurobasal medium (Gibco BRL) containing B-27 supplements and 2 mM L-glutamine for 10 days. To induce oxidative stress to the tissue-cultured hippocampus neuron, it was treated with 1 mM BSO for 8 hours. Here, the tissue-cultured hippocampus neuron was also treated with each concentration (0.1, 0.5 and 1 μM) of the lignan compound of the present invention simultaneously to analyze the reactive oxygen species-inhibitory effect of the lignan compound of the present invention. The control was not treated with BSO. Then, the amount of reactive oxygen species produced was measured by a method known in the art (Jung, Y. S., Biochem Biophys Res Commun., 320(3):789-94, 2004) using 10 μM DCFDA(molecular probes).

iNOS = iNOS expression in LPS-activated microglia (Western blotting); type: cell-based, mouse; details: 1 μg/ml LPS, compound 2.5 and 10 μM, 16 or 24 hours
Excerpt: In Example <6-2>, it was observed that the NO production induced by LPS in the tissue-cultured microglia of mouse was inhibited by the lignan compound of the present invention. NO is produced by iNOS enzyme of which expression is induced by activation of microglia. Therefore, the correlation between the reduction of NO production and inhibition of iNOS expression was examined. Additionally, a change in the amount of a protein COX-2 participating in the production of other inflammation-mediating materials was examined. For Western blotting analysis, tissue-cultured microglia was cultured in a 60 mm cell culture dish up to a concentration of 7.5×10^5 cells/ml. After 1 day of cultivation, the activation of microglia was induced by 1 μg/ml of LPS (Sigma) treatment. Simultaneously, the microglia was also treated with 2.5 and 10 μM of the lignan compound of the present invention together with LPS, and incubated for 16 or 24 hours. The incubated cell was washed with cold PBS 2 times, and then dissolved in a cold lysis buffer (1% SDS, 1 mM Na3VO4, 10 mM NaF, 10 mM Tris-Cl, pH 7.4 containing 1× protease inhibitors cocktail). […] Then, the amount of proteins was quantified according to BCA method. […]
NaCl containing 0.1% Tween 20) 3 times. […] Again, the membrane was then washed with TBS-T solution 3 times, and each band on the membrane was analyzed using ECL system (Sigma).

[2] = Toxicity in oral administration; details: rat, in vivo; oral administration to rats; data not shown; read-out: 50% lethal dose (LD50)
Protocol: The lignan compound of the present invention was tested for toxicity in oral administration to rats, and as a result, it was observed that the 50% lethal dose (LD50) was more than 2,000 mg/kg (Data is not shown).

cell line HT-22 = experiment: Brain cell apoptosis induced by glutamate in HT-22 (WST-1); type: cell-based; details: HT-22, 5 mM glutamate 24 hours, compound 1, 2, 5 and 10 μM
Protocol: A cell line HT-22 derived from the hippocampus was treated with 5 mM glutamate for 24 hours to induce apoptosis. As a control, the cell line HT-22 was not treated with glutamate. Then, the cell line HT-22 was treated with the lignan compound of the present invention at concentrations (1, 2, 5 and 10 μM) for 24 hours. The cell death was analyzed with WST-1(Roche).

NO = NO production in LPS-activated microglia (Griess reagent); type: cell-based, mouse; details: 1 μg/ml LPS
Protocol: When the microglia is activated, the expression of NO as a mediator of nerve transmission and immune response is induced (Liu, B. et al., Ann. N.Y. Acad. Sci., 962:318-331, 2002). Therefore, the effect of the lignan compound of the present invention on the NO production in microglia was examined. First, only the neocortex was isolated from the brain of 1 day-old mouse. Then, a microglia-astroglia mixture was prepared according to a method known in the art (Kim, H. Y. et al., J. Immunol., 171:6072-6079, 2003). The microglia-astroglia mixture was then divided at a ratio of 4 flasks/1 head and cultured in MEM medium containing 10% FBS in a 75 cm^2 flask for 2 weeks. The microglia was separated from the cultured cells and cultured in MEM medium containing 5% FBS for 24 hours. The tissue-cultured microglia was inoculated into MEM medium containing 5% FBS at a concentration of 1.5×10^4 cells/well and cultured in a 96-well plate. After 1 day of cultivation, the microglia was treated with 1 μg/ml of LPS (Sigma) to induce activation of the microglia. […] Then, the cell-cultured medium was collected and NO production was measured. The NO production was analyzed by measuring the amount of nitrite as a stable metabolite of NO in the cell-cultured medium using Griess reagent kit (Molecular Probe). […] Then, the absorbance of the resulting solution was measured with a microplate reader at 548 nm.

Which “production of reactive oxygen species in the tissue-cultured hippocampus neuron” value [1] does the source give for `COc1cc(C[C@H](C)[C@H](C)Cc2ccc3c(c2)OCO3)ccc1O` [macelignan, (8R,8′S)-7-(3,4-methylenedioxyphenyl)-7′-(4-hydroxy-3-methoxyphenyl)-8,8′-dimethylbutane] here?
The value was “in the similar level as the control”.

What about the “expression of iNOS induced by LPS” value (iNOS) of the same compound?
The value was “inhibited in a concentration dependent manner”.

And the LD50 [2]?
The LD50 was greater than 2000 mg/kg.

And the “brain cell apoptosis induced by glutamate” value (cell line HT-22)?
The value was “dose-dependently inhibited”.

What about the “NO production induced by LPS” value (NO; compound 2.5 and 10 μM, 16 or 24 hours) of the same compound?
Its value is “dose-dependently inhibited”.

What about the inhibition at 10 µM (NO; Mus musculus, 10 μM compound, read-out: inhibition rate of NO production) of the same compound?
Its inhibition at 10 µM is roughly 90%.
